Measurements reported in publication PMC2897767, “Two Distinct Mechanisms for Actin Capping Protein Regulation—Steric and Allosteric Inhibition” (PLoS Biology, 2010).
“Also recorded” adds a separate entry of the source. Each block holds one substance with its values, some of them ahead of it. Where no end group is shown, it is not given here.

What was measured:
[1] = tested on: CP; experiment: SPR competition with immobilized GST-CA92 for CP binding; design: species or system chicken; settings: 50 nM wild type CP pre-mixed with various concentrations of peptide (Figure S7)
Protocol: (§1) GST-fusion proteins (GST-V-1, GST-CA, or GST-CD) were immobilized onto a CM5 sensor chip up to 200 RU (response units; 200 pg/mm^2) via anti-GST antibodies. […] Response curves were obtained by subtracting the background signal generated simultaneously on a control flow cell with immobilized GST. […] Kinetic parameters were determined by fitting the sensorgrams to a simple 1∶1 binding model, using the Bia-evaluation software (GE Healthcare). KD values were obtained from the kinetic rate constants.
(0.25 MB TIF) Click here for additional data file.

[2] = tested on: CPfull (wild type CP); experiment: Actin polymerization assay (barbed end elongation from spectrin-actin seeds): inhibition of CP capping; format: biochemical, chicken; settings: actin 1.2 µM (5% pyrene-labeled); for inhibition of barbed end capping by CARMIL peptides: 3.6 nM CPfull, various peptide concentrations, 25°C (Figure 9D); for inhibition of CP capping activity by V-1 proteins: 3 nM wild type CP, various concentrations of V-1, 25°C (Figure S2)
Protocol: (A) Superposition of the C-termini of the peptides. CD Phe505 and CK Arg169 are shown as stick models. The conserved proline at the C-terminus of the motifs is shown as balls. (B) CD2AP constructs used for biochemical assays. (C) CARMIL constructs used for biochemical assays. […] Actin (1.2 µM, 5% pyrene-labeled) was polymerized from spectrin-actin seeds in the presence of 3.6 nM CPfull (D), 10 nM CPβΔC (E), or 7.2 nM CPfull (F) with various concentrations of CARMIL peptides or GST-CA constructs.
The barbed end elongation assay from spectrin-actin seeds was performed essentially as previously described. Briefly, G-actin was stored in G-buffer (0.2 mM CaCl2, 0.2 mM ATP, 0.5 mM DTT and 10 mM imidazole, pH 7.0). At 90 s prior to polymerization, the Ca^2+ was replaced with Mg^2+, by the addition of 1/10 volume of 10 mM EGTA and 1 mM MgCl2 to G-actin. […] Actin polymerization was measured by monitoring the pyrene-actin fluorescence (excitation 370 nm; emission 410 nm) at 25°C.
(0.16 MB TIF) Click here for additional data file.

[3] = tested on: CP wt / GST-V-1 interaction; experiment: SPR assay of the effect of CARMIL peptides on CP/V-1 binding; design: species or system chicken CP, human V-1
Protocol: GST-V-1 was immobilized on a sensor chip.
as §1

[4] = tested on: CP; experiment: SPR binding of CP to immobilized GST-CD2AP / GST-CARMIL fragments; design: species or system chicken; settings: 20°C; for koff / kon: SPR (Biacore), CP perfused, 1:1 binding model; for koff: GST-fusion immobilized; for kon: GST-fusion immobilized via anti-GST antibody on CM5 chip, 50 mM KCl, 1 mM MgCl2, 0.005% Tween-20, 10 mM imidazole pH 7.0
Protocol: Expression vectors for chicken CPfull and CPΔβC were constructed in pETDuet-1 by PCR, using pET-3d/CP [38] as the template. CP was expressed in E. coli Rosetta2 (DE3) and was purified as described. V-1 (human), expressed in E. coli Rosetta2 (DE3) as a GST-fusion protein, was affinity-purified and the tag was removed. Synthetic peptides derived from CARMIL proteins were obtained from Invitrogen. For crystallization, CP was incubated with a 1.2–2.0-fold molar excess of V-1 or CARMIL peptides at 4°C for 2 h, followed by gel filtration to purify the complexes. Expression vectors for the GST-CA constructs were prepared from the mouse cDNA clone as previously described. Vectors for GST-CD fragments were constructed by PCR cloning using a human whole brain cDNA library (Clontech) as the template. Amplified DNA fragments were cloned into pGEX-6P-1. GST-fusion proteins were expressed in E. coli Rosetta2 (DE3) cells and affinity-purified using glutathione sepharose resin. Mutations were introduced using a Quikchange mutagenesis kit (Stratagene). Actin was prepared from rabbit skeletal muscle, as previously described, and was further purified by gel filtration chromatography. Pyrene labeled-actin was prepared as described. Spectrin-actin seeds were prepared from rabbit red blood cells, as previously described.
(§2) The binding affinities of CP for V-1 or CARMIL proteins were evaluated by surface plasmon resonance measurements with Biacore 3000 or Biacore 2000 instruments (GE Healthcare). GST-fusion proteins (GST-V-1, GST-CA, or GST-CD) were immobilized onto a CM5 sensor chip up to 200 RU (response units; 200 pg/mm^2) via anti-GST antibodies. CP at various concentrations in running buffer (50 mM KCl, 1 mM MgCl2, 0.005% Tween-20, 10 mM imidazole, pH 7.0) was perfused over the chip at 20°C, at a flow rate of 20 µl/min. Response curves were obtained by subtracting the background signal generated simultaneously on a control flow cell with immobilized GST. To measure the effect of the CARMIL peptides on the facilitation of CP/V-1 dissociation (in Figure 11C and 11D), we used the “co-inject” mode for successive injections of the peptides followed by CP. Kinetic parameters were determined by fitting the sensorgrams to a simple 1∶1 binding model, using the Bia-evaluation software (GE Healthcare). KD values were obtained from the kinetic rate constants. […] KD values were evaluated by plotting these values against the concentrations of CP.

[5] = target: CPfull (CP wt); experiment: SPR binding of CP to immobilized V-1; design: species or system chicken; settings: V-1 mutant immobilized, analyte CP wt, equilibrium KD from Michaelis-Menten plots at saturated binding, not detectable = no binding at highest concentrations tested (≥ 50 µM)
Protocol: as §2
^a Kinetic parameters were determined by fitting of the sensorgrams to a 1:1 binding model. KD = koff / kon .
^b Kinetic parameters were not determined for mutant proteins, due to the fast dissociation of the complex (koff > 0.1 s^-1). […]

Substance: CD30: peptide with 7 extra residues at the C-terminus of CD23 (NLLHLTANRPKMPGRRLPGRFNGGHSPTHS; UniProt Q9Y5K6 485-514, looked up, fragment)
inhibition of barbed end capping by CARMIL peptides [2]: higher CP inhibition activity than CD23

Substance: GST-CA55: GST fusion of mouse CARMIL residues 962–1016 (FPSVRQEKRSSGLISELPSEEGRRLEHFTKLRPKRNKKQQPTQAAVCTISILPQD; also: GST fusion, end not given here)
koff ([4]; pH 7.0): >0.1 s⁻¹ | KD (in words) ([4]; SPR, pH 7.0): micromolar range

Substance: GST-CD43: GST fusion of human CD2AP residues 461–503 (FDSLTVRTSKETDVVNFDDIASSENLLHLTANRPKMPGRRLPG; also: GST fusion, end not given here)
koff ([4]; pH 7.0): >0.1 s⁻¹

Substance: V-1 W8A: V-1 point mutant Trp8 to Ala
inhibition of CP capping activity by V-1 proteins [2]: little inhibitory effect; also recorded: minimal effects on CP capping

More lines, main results first:

competition with immobilized GST-CA92 for CP binding [1]: effectively compete | facilitation of dissociation of CP from immobilized GST-V-1 ([3]; 45 nM CP wt perfused first, then 100 nM peptide, versus buffer control (Figure 11C)): CP dissociated from V-1 quite rapidly | inhibition of CP/V-1 complex formation ([3]; GST-V-1 immobilized, 100 nM peptide premixed with 45 nM CP wt (Figure 11A)): strongly inhibited
Substance: CD23: synthetic peptide, human CD2AP residues 485–507 (CP-binding motif) (NLLHLTANRPKMPGRRLPGRFNG; UniProt Q9Y5K6 485-507, looked up, fragment)
inhibition of barbed end capping by CARMIL peptides [2]: moderately inhibited

kon [4]: 540000 M⁻¹ s⁻¹ | koff ([4]; pH 7.0): 0.033 s⁻¹
Substance: GST-CD44: GST fusion of human CD2AP residues 461–504 (FDSLTVRTSKETDVVNFDDIASSENLLHLTANRPKMPGRRLPGR; also: GST fusion, end not given here)

kon [4]: 1.6e+06 M⁻¹ s⁻¹ | koff ([4]; pH 7.0): 0.029 s⁻¹
Substance: GST-CD47: GST fusion of human CD2AP residues 461–507 (FDSLTVRTSKETDVVNFDDIASSENLLHLTANRPKMPGRRLPGRFNG; also: GST fusion, end not given here)

KD [5]: not detectable ^c
Substance: V-1 D44R: V-1 point mutant Asp44 to Arg
inhibition of CP capping activity by V-1 proteins [2]: little inhibitory effect; also recorded: minimal effects on CP capping

Kd [5]: 21 µM
Substance: V-1 E78R: V-1 point mutant Glu78 to Arg
inhibition of CP capping activity by V-1 proteins [2]: little inhibitory effect; also recorded: minimal effects on CP capping
